The experiment has as its system CD2F1 mice, L1210 leukemia ip, survival T/C. The experiment in a line: NCI In Vivo Anticancer Drug Screen. Data for tumor model L1210 Leukemia (intraperitoneal) in CD2F1 (CDF1) mice. The settings on record: higher = longer survival. In a few lines:
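Each value reflects a quotient of treated over vehicle control outcomes in mice with a transplanted tumor.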

The mark [1] stands for this setting: endpoint: mean survival time, dose: 100.0 mg/kg/injection, schedule: Q01DX009 (ip), vehicle: saline with Tween-80.
The mark [2] stands for this setting: endpoint: mean survival time, dose: 100.0 mg/kg/injection, schedule: Q04DX003 (ip), vehicle: saline with Tween-80.
Setting [3] is: endpoint: mean survival time, dose: 200.0 mg/kg/injection, schedule: Q01DX009 (ip), vehicle: saline with Tween-80.
The mark [4] stands for this setting: endpoint: mean survival time, dose: 200.0 mg/kg/injection, schedule: Q04DX003 (ip), vehicle: saline with Tween-80.
Where [5] appears, read: endpoint: mean survival time, dose: 400.0 mg/kg/injection, schedule: Q01DX009 (ip), vehicle: saline with Tween-80.
The mark [6] stands for this setting: endpoint: mean survival time, dose: 400.0 mg/kg/injection, schedule: Q04DX003 (ip), vehicle: saline with Tween-80.
Setting [7] is: endpoint: mean survival time, dose: 100.0 mg/kg/injection, schedule: Q04DX003 (ip), vehicle: Klucel (hydroxypropylcellulose) (HPC).
The mark [8] stands for this setting: endpoint: mean survival time, dose: 200.0 mg/kg/injection, schedule: Q04DX003 (ip), vehicle: Klucel (hydroxypropylcellulose) (HPC).
Where [9] appears, read: endpoint: mean survival time, dose: 400.0 mg/kg/injection, schedule: Q04DX003 (ip), vehicle: Klucel (hydroxypropylcellulose) (HPC).

Values joined by “and” are separate entries in the source; they are usually repeats but may differ in a detail not shown here. Equal values may be shown once. Toxic doses and inconclusive results are not listed.

For `Cc1ccc(S(=O)(=O)OCCCCCCCCCCOS(=O)(=O)c2ccc(C)cc2)cc1`, the T/C reads like this: under setting [1], 91 % of control; under setting [2], 91 % of control; under setting [3], 92 % of control; under setting [4], 97 % of control; under setting [5], 91 % of control; under setting [6], 94 % of control.
In the case of `Cn1ccc(CON)n1`, the T/C was 94 % of control (endpoint: mean survival time, dose: 100.0 mg/kg/injection, schedule: Q01DX009 (ip), vehicle: saline) and 93 % of control (endpoint: mean survival time, dose: 200.0 mg/kg/injection, schedule: Q01DX009 (ip), vehicle: saline).
Consider `O=C(O)CCCSc1nc2ccccc2s1`, for which the T/C is, setting by setting: under setting [1], 98 % of control; under setting [2], 95 % of control; under setting [3], 97 % of control; under setting [4], 98 % of control; under setting [5], 105 % of control; under setting [6], 98 % of control.
For the compound `C=C(C)C12CC(C)C34OC5(CCCCCCCC(C)C6C(C)C(OC(=O)c7ccccc7)C(O)(C(O)C7(COC(=O)CCCCCCCCCCCCCCC)OC7C3C1O5)C64)O2` (centres undefined), the T/C is 103 % of control (endpoint: mean survival time, dose: 1.5 micrograms/kg/injection, schedule: Q01DX009 (ip), vehicle: saline); 104 % of control (endpoint: mean survival time, dose: 3.1 micrograms/kg/injection, schedule: Q01DX009 (ip), vehicle: saline); 97 % of control (endpoint: mean survival time, dose: 6.2 micrograms/kg/injection, schedule: Q01DX009 (ip), vehicle: saline); 104 % of control (endpoint: mean survival time, dose: 12.5 micrograms/kg/injection, schedule: Q01DX009 (ip), vehicle: saline); 95 % of control (endpoint: mean survival time, dose: 25.0 micrograms/kg/injection, schedule: Q01DX009 (ip), vehicle: saline); 101 % of control (endpoint: mean survival time, dose: 50.0 micrograms/kg/injection, schedule: Q01DX009 (ip), vehicle: saline).
Turning to `O=c1[nH]c(=O)n(C2OC(COP(=O)(O)O)C(O)C2O)nc1SCc1ccccc1` (centres undefined), the T/C is 109 % of control (endpoint: median survival time, dose: 5.0 mg/kg/injection, schedule: Q01DX005 (ip), vehicle: distilled water + Tween-80); 98 % of control (endpoint: median survival time, dose: 10.0 mg/kg/injection, schedule: Q01DX005 (ip), vehicle: distilled water + Tween-80); 96 % of control (endpoint: median survival time, dose: 20.0 mg/kg/injection, schedule: Q01DX005 (ip), vehicle: distilled water + Tween-80); 105 % of control (endpoint: median survival time, dose: 40.0 mg/kg/injection, schedule: Q01DX005 (ip), vehicle: distilled water + Tween-80); 117 % of control (endpoint: median survival time, dose: 80.0 mg/kg/injection, schedule: Q01DX005 (ip), vehicle: distilled water + Tween-80).
With `CC(=O)Nc1ncc2ccccc2c1-c1ccc(N(CCOS(=O)(=O)c2ccc(C)cc2)CCOS(=O)(=O)c2ccc(C)cc2)cc1`, the T/C is, setting by setting: (endpoint: mean survival time, dose: 25.0 mg/kg/injection, schedule: Q04DX003 (ip), vehicle: DMSO) 108 % of control; (endpoint: mean survival time, dose: 50.0 mg/kg/injection, schedule: Q04DX003 (ip), vehicle: DMSO) 104 % of control; (endpoint: mean survival time, dose: 100.0 mg/kg/injection, schedule: Q04DX003 (ip), vehicle: DMSO) 110 % of control; (endpoint: mean survival time, dose: 200.0 mg/kg/injection, schedule: Q04DX003 (ip), vehicle: DMSO) 116 % of control; (endpoint: mean survival time, dose: 400.0 mg/kg/injection, schedule: Q04DX003 (ip), vehicle: DMSO) 108 % of control.
For the compound `COc1ccc(NS(=O)(=O)c2ccc(NC(C)=O)cc2)cc1`, the T/C runs as follows: (endpoint: mean survival time, dose: 100.0 mg/kg/injection, schedule: Q01DX001 (ip), vehicle: Klucel (hydroxypropylcellulose) (HPC)) 104 % of control; (endpoint: mean survival time, dose: 100.0 mg/kg/injection, schedule: Q01DX009 (ip), vehicle: Klucel (hydroxypropylcellulose) (HPC)) 97 % of control; (endpoint: mean survival time, dose: 200.0 mg/kg/injection, schedule: Q01DX001 (ip), vehicle: Klucel (hydroxypropylcellulose) (HPC)) 96 % of control; (endpoint: mean survival time, dose: 200.0 mg/kg/injection, schedule: Q01DX009 (ip), vehicle: Klucel (hydroxypropylcellulose) (HPC)) 105 % of control; (endpoint: mean survival time, dose: 400.0 mg/kg/injection, schedule: Q01DX001 (ip), vehicle: Klucel (hydroxypropylcellulose) (HPC)) 98 % of control; (endpoint: mean survival time, dose: 400.0 mg/kg/injection, schedule: Q01DX009 (ip), vehicle: Klucel (hydroxypropylcellulose) (HPC)) 96 % of control.
For `NC1CCCCC1N.O=C(Nc1ccc2c(O)cc(S(=O)(=O)[O-])cc2c1)c1ccccc1.O=C(Nc1ccc2c(O)cc(S(=O)(=O)[O-])cc2c1)c1ccccc1.[Pt+4]`, the T/C by setting is: (endpoint: median survival time, dose: 1.56 mg/kg/injection, schedule: Q04DX003 (ip), vehicle: saline with Tween-80) 166 % of control; (endpoint: median survival time, dose: 3.12 mg/kg/injection, schedule: Q04DX003 (ip), vehicle: saline with Tween-80) 204 % of control and 344 % of control; (endpoint: median survival time, dose: 6.25 mg/kg/injection, schedule: Q04DX003 (ip), vehicle: saline with Tween-80) 289 % of control and 344 % of control; (endpoint: median survival time, dose: 12.5 mg/kg/injection, schedule: Q04DX003 (ip), vehicle: saline with Tween-80) 289 % of control; (endpoint: median survival time, dose: 25.0 mg/kg/injection, schedule: Q04DX003 (ip), vehicle: saline with Tween-80) 91 % of control.
Take `Cc1ccc(S(=O)(=O)N(CCCc2c(C)nc(N)nc2Nc2ccccc2)c2ccccc2)cc1`: the T/C (endpoint: mean survival time, dose: 100.0 mg/kg/injection, schedule: Q01DX001 (ip), vehicle: saline with Tween-80) was 92 % of control.
For the compound `CNN(C)N=Nc1ccc(C(N)=O)cc1`, the T/C was 110 % of control (endpoint: mean survival time, dose: 19.75 mg/kg/injection, schedule: Q01DX009 (ip), vehicle: Klucel (hydroxypropylcellulose) (HPC)); 118 % of control (endpoint: mean survival time, dose: 39.5 mg/kg/injection, schedule: Q01DX009 (ip), vehicle: Klucel (hydroxypropylcellulose) (HPC)); 93 % of control (endpoint: mean survival time, dose: 79.0 mg/kg/injection, schedule: Q01DX009 (ip), vehicle: Klucel (hydroxypropylcellulose) (HPC)).
As for `CN(N=O)P(=O)(Nc1ccccc1)Nc1ccccc1`, the T/C is, setting by setting: (endpoint: mean survival time, dose: 25.0 mg/kg/injection, schedule: Q04DX003 (ip), vehicle: other) 101 % of control; (endpoint: mean survival time, dose: 50.0 mg/kg/injection, schedule: Q04DX003 (ip), vehicle: other) 98 % of control; (endpoint: mean survival time, dose: 100.0 mg/kg/injection, schedule: Q04DX003 (ip), vehicle: other) 103 % of control.
For the compound `O=C(Nc1cccc(F)c1)c1ccco1`, the T/C runs as follows: under setting [7], 94 % of control; under setting [8], 88 % of control; under setting [9], 91 % of control.
With `CC1Oc2cc3c(-c4c(O)cc(O)c5c(O)c6c(cc45)OC(C)C(C)C6=O)c(O)cc(O)c3c(O)c2C(=O)C1C` (centres undefined), the T/C (endpoint: median survival time, dose: 5.0 mg/kg/injection, schedule: Q01DX009 (ip), vehicle: suspension in saline) was 87 % of control and the T/C (endpoint: median survival time, dose: 10.0 mg/kg/injection, schedule: Q01DX009 (ip), vehicle: suspension in saline) was 91 % of control.
Turning to `O=C(O)c1c2ccccc2cc2ccccc12`, the T/C reads like this: under setting [7], 101 % of control; under setting [8], 95 % of control; under setting [9], 90 % of control.
For the compound `COc1cc(OC)c(NC(=O)OCCOc2ccc(Br)cc2)cc1Cl`, the T/C is, setting by setting: (endpoint: mean survival time, dose: 50.0 mg/kg/injection, schedule: Q01DX009 (ip), vehicle: saline with Tween-80) 90 % of control; under setting [1], 90 % of control; under setting [3], 97 % of control.
Regarding `CCOC(=O)C(C)(C)Br`, the T/C was 105 % of control (endpoint: mean survival time, dose: 100.0 mg/kg/injection, schedule: Q01DX009 (ip), vehicle: saline sonified); 102 % of control under setting [1]; 95 % of control and 98 % of control and 103 % of control under setting [2]; 100 % of control (endpoint: mean survival time, dose: 200.0 mg/kg/injection, schedule: Q01DX009 (ip), vehicle: saline sonified); 95 % of control and 98 % of control and 100 % of control under setting [4]; 106 % of control (endpoint: mean survival time, dose: 400.0 mg/kg/injection, schedule: Q01DX009 (ip), vehicle: saline sonified). The T/C reads like this: under setting [5], 90 % of control; under setting [6], 96 % of control and 103 % of control and 106 % of control.
In the case of `CC1C=CC(=O)O1` (centres undefined), the T/C (endpoint: mean survival time, dose: 50.0 mg/kg/injection, schedule: Q04DX002 (ip), vehicle: saline with Tween-80) was 100 % of control and the T/C (endpoint: mean survival time, dose: 100.0 mg/kg/injection, schedule: Q04DX002 (ip), vehicle: saline with Tween-80) is 103 % of control.

(Values after PubChem BioAssay AID256 (DTP/NCI, 2004).)
